Measured values: article PMC7501296, “Rapid and direct control of target protein levels with VHL-recruiting dTAG molecules” (Nature Communications, 2020)
Values joined by “and” are separate entries in the source; they are usually repeats but may differ in a detail not shown here. Equal values may be shown once. One block for each compound: values may come before it.

Experiments:
[1] = tested on: EWS502 FKBP12^F36V-EWS/FLI; EWS/FLI^−/− cells; experiment: Synergy assessment: antiproliferation of EWS502 FKBP12F36V-EWS/FLI; EWS/FLI-/- cells co-treated with dTAGV-1 and dBET6, 72 h; type: cell-based
Method: Cell viability was assayed in 2D-adherent or ultra-low adherent 3D-spheroids using CellTiter-Glo (Promega)[6],[15]. Luminescence was measured on an Envision 2104 plate reader (PerkinElmer) and Fluostar Omega Reader (BMG Labtech) and data was analyzed using GraphPad PRISM v8. Synergy assessments were performed using CellTiter-Glo (Promega) with the following modifications to the protocol described in the ref. [34]. In brief, EWS502 cells were plated at 1000 cells per well in 50 µL of appropriate media in 384-well white culture plates (Corning) allowed to adhere overnight, and 100 nL of compounds were added using a Janus Workstation pin tool (PerkinElmer) for 72 h. Cell viability was measured by addition of 10 µL of CellTiter-glo (Promega), followed by incubation for 15 minutes at room temperature. Luminescence was measured on an Envision 2104 plate reader (PerkinElmer) and data was analyzed using GraphPad PRISM v8.

[2] = target: T1, luciferase-FKBP12^F36V (Homo sapiens, UniProt P62942, F37V); experiment: Pharmacodynamic evaluation: bioluminescence of MV4;11 luc-FKBP12F36V cells in mice; type: in vivo, mice (NSG); design: Total flux for each mouse: unit not given here; conditions: for Total flux for each mouse: single mice
T1 construct: luciferase (fusion partner); expressed in transfected cells; host or cells: MV4;11 cells transplanted into NSG mice
T1 sequence (P62942 2-108 F37V limits assumed): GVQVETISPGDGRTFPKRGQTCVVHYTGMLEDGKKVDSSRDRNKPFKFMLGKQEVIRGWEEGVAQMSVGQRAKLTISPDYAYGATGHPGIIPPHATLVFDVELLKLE
Excerpt: For IP injections, dTAG-13 and dTAG^V-1 were formulated by dissolving into DMSO and then diluting with 20% solutol (Sigma): 0.9% sterile saline (Moltox) (w:v) with the final formulation containing 5% DMSO. […] Formulations were stable at room temperature for 7 days. For IV injections, dTAG-13 and dTAG^V-1 were formulated by dissolving into DMSO and then diluting with 5% solutol (Sigma): 0.9% sterile saline (Moltox) (w:v) with the final formulation containing 5% DMSO.
All procedures for PD studies were compliant with ethical regulations for animal testing and research, and were approved by and performed in accordance with standards of the IACUC at Dana–Farber Cancer Institute. Housing conditions for mice at Dana–Farber Cancer Institute were as follows: lights on = 6 AM, lights off = 6 PM, average ambient temperature = 72 °F, and average humidity = 35–55%. Evaluation of degradation of luciferase in vivo was performed using MV4;11 luc-FKBP12^F36V cells and bioluminescent measurements[6],[48]. In brief, 250,000 viable MV4;11 luc-FKBP12^F36V cells were transplanted by tail-vein injection in 8-week-old immunocompromised female mice (NOD.Cg-Prkdc^scidIl2rg^tm1Wjl/SzJ, NSG; Jackson Laboratory, #005557). Bioluminescent measurements were performed following IP injection of 75 mg kg^−1 D-Luciferin (Promega). Mice were then anesthetized with 2−3% isoflurane, imaged on an IVIS Spectrum (Caliper Life Sciences), and total body bioluminescence was determined using a standardized region of interest. Two and seven days after tail-vein injection, bioluminescent measurements were performed to confirm engraftment. […] For treatments, compounds were formulated as described above, administered via IP injection and bioluminescent measurements were performed daily as described in Fig. 2d, beginning 8 days after tail-vein injection.

Structure (SMILES): Cc1sc2c(c1C)C(c1ccc(Cl)cc1)=N[C@@H](CC(=O)NCCCCCCCCNC(=O)COc1cccc3c1C(=O)N(C1CCC(=O)NC1=O)C3=O)c1nnc(C)n1-2 (stereo partly shown) [dBET6]
Average DMSO-normalized ratio used for CI calculation ([1]; 1 nM dBET6 + 19.5 nM dTAGV-1): 0.9811
Average DMSO-normalized ratio used for CI calculation ([1]; 1 nM dBET6 + 78 nM dTAGV-1): 1.134
Average DMSO-normalized ratio used for CI calculation ([1]; 1 nM dBET6 + 312.5 nM dTAGV-1): 1.111
Average DMSO-normalized ratio used for CI calculation ([1]; 1 nM dBET6 + 1250 nM dTAGV-1): 0.8948
Average DMSO-normalized ratio used for CI calculation ([1]; 1 nM dBET6 + 5000 nM dTAGV-1): 0.8015
Average DMSO-normalized ratio used for CI calculation ([1]; 1 nM dBET6 alone): 0.8411
Average DMSO-normalized ratio used for CI calculation ([1]; 4 nM dBET6 + 19.5 nM dTAGV-1): 0.9809
Average DMSO-normalized ratio used for CI calculation ([1]; 4 nM dBET6 + 78 nM dTAGV-1): 1.057
Average DMSO-normalized ratio used for CI calculation ([1]; 4 nM dBET6 + 312.5 nM dTAGV-1): 1.0595
Average DMSO-normalized ratio used for CI calculation ([1]; 4 nM dBET6 + 1250 nM dTAGV-1): 0.7491
Average DMSO-normalized ratio used for CI calculation ([1]; 4 nM dBET6 + 5000 nM dTAGV-1): 0.4793
Average DMSO-normalized ratio used for CI calculation ([1]; 4 nM dBET6 alone): 0.8957
Average DMSO-normalized ratio used for CI calculation ([1]; 15.6 nM dBET6 + 19.5 nM dTAGV-1): 0.798
Average DMSO-normalized ratio used for CI calculation ([1]; 15.6 nM dBET6 + 78 nM dTAGV-1): 0.8317
Average DMSO-normalized ratio used for CI calculation ([1]; 15.6 nM dBET6 + 312.5 nM dTAGV-1): 0.7228
Average DMSO-normalized ratio used for CI calculation ([1]; 15.6 nM dBET6 + 1250 nM dTAGV-1): 0.4425
Average DMSO-normalized ratio used for CI calculation ([1]; 15.6 nM dBET6 + 5000 nM dTAGV-1): 0.279
Average DMSO-normalized ratio used for CI calculation ([1]; 15.6 nM dBET6 alone): 0.7797
Average DMSO-normalized ratio used for CI calculation ([1]; 62.5 nM dBET6 + 19.5 nM dTAGV-1): 0.5057
Average DMSO-normalized ratio used for CI calculation ([1]; 62.5 nM dBET6 + 78 nM dTAGV-1): 0.5414
Average DMSO-normalized ratio used for CI calculation ([1]; 62.5 nM dBET6 + 312.5 nM dTAGV-1): 0.4908
Average DMSO-normalized ratio used for CI calculation ([1]; 62.5 nM dBET6 + 1250 nM dTAGV-1): 0.3106
Average DMSO-normalized ratio used for CI calculation ([1]; 62.5 nM dBET6 + 5000 nM dTAGV-1): 0.2615
Average DMSO-normalized ratio used for CI calculation ([1]; 62.5 nM dBET6 alone): 0.5245
Average DMSO-normalized ratio used for CI calculation ([1]; 250 nM dBET6 + 19.5 nM dTAGV-1): 0.3576
Average DMSO-normalized ratio used for CI calculation ([1]; 250 nM dBET6 + 78 nM dTAGV-1): 0.3678
Average DMSO-normalized ratio used for CI calculation ([1]; 250 nM dBET6 + 312.5 nM dTAGV-1): 0.3326
Average DMSO-normalized ratio used for CI calculation ([1]; 250 nM dBET6 + 1250 nM dTAGV-1): 0.2968
Average DMSO-normalized ratio used for CI calculation ([1]; 250 nM dBET6 + 5000 nM dTAGV-1): 0.2503
Average DMSO-normalized ratio used for CI calculation ([1]; 250 nM dBET6 alone): 0.3398
DMSO-normalized antiproliferation, Mean ([1]; co-treatment 19.5 nM dTAGV-1 (log10[M] -7.70927) + 1 nM dBET6 (log10[M] -9.0103)): 98.11
DMSO-normalized antiproliferation, Mean ([1]; co-treatment 19.5 nM dTAGV-1 (log10[M] -7.70927) + 4 nM dBET6 (log10[M] -8.40824)): 98.09
DMSO-normalized antiproliferation, Mean ([1]; co-treatment 19.5 nM dTAGV-1 (log10[M] -7.70927) + 15.6 nM dBET6 (log10[M] -7.80618)): 79.8
DMSO-normalized antiproliferation, Mean ([1]; co-treatment 19.5 nM dTAGV-1 (log10[M] -7.70927) + 62.5 nM dBET6 (log10[M] -7.20412)): 50.57
DMSO-normalized antiproliferation, Mean ([1]; co-treatment 19.5 nM dTAGV-1 (log10[M] -7.70927) + 250 nM dBET6 (log10[M] -6.60206)): 35.76
DMSO-normalized antiproliferation, Mean ([1]; co-treatment 78 nM dTAGV-1 (log10[M] -7.10721) + 1 nM dBET6 (log10[M] -9.0103)): 113.36
DMSO-normalized antiproliferation, Mean ([1]; co-treatment 78 nM dTAGV-1 (log10[M] -7.10721) + 4 nM dBET6 (log10[M] -8.40824)): 105.67
DMSO-normalized antiproliferation, Mean ([1]; co-treatment 78 nM dTAGV-1 (log10[M] -7.10721) + 15.6 nM dBET6 (log10[M] -7.80618)): 83.17
DMSO-normalized antiproliferation, Mean ([1]; co-treatment 78 nM dTAGV-1 (log10[M] -7.10721) + 62.5 nM dBET6 (log10[M] -7.20412)): 54.14
DMSO-normalized antiproliferation, Mean ([1]; co-treatment 78 nM dTAGV-1 (log10[M] -7.10721) + 250 nM dBET6 (log10[M] -6.60206)): 36.78
DMSO-normalized antiproliferation, Mean ([1]; co-treatment 312.5 nM dTAGV-1 (log10[M] -6.50515) + 1 nM dBET6 (log10[M] -9.0103)): 111.14
DMSO-normalized antiproliferation, Mean ([1]; co-treatment 312.5 nM dTAGV-1 (log10[M] -6.50515) + 4 nM dBET6 (log10[M] -8.40824)): 105.95
DMSO-normalized antiproliferation, Mean ([1]; co-treatment 312.5 nM dTAGV-1 (log10[M] -6.50515) + 15.6 nM dBET6 (log10[M] -7.80618)): 72.28
DMSO-normalized antiproliferation, Mean ([1]; co-treatment 312.5 nM dTAGV-1 (log10[M] -6.50515) + 62.5 nM dBET6 (log10[M] -7.20412)): 49.08
DMSO-normalized antiproliferation, Mean ([1]; co-treatment 312.5 nM dTAGV-1 (log10[M] -6.50515) + 250 nM dBET6 (log10[M] -6.60206)): 33.26
DMSO-normalized antiproliferation, Mean ([1]; co-treatment 1250 nM dTAGV-1 (log10[M] -5.90309) + 1 nM dBET6 (log10[M] -9.0103)): 89.48
DMSO-normalized antiproliferation, Mean ([1]; co-treatment 1250 nM dTAGV-1 (log10[M] -5.90309) + 4 nM dBET6 (log10[M] -8.40824)): 74.91
DMSO-normalized antiproliferation, Mean ([1]; co-treatment 1250 nM dTAGV-1 (log10[M] -5.90309) + 15.6 nM dBET6 (log10[M] -7.80618)): 44.25
DMSO-normalized antiproliferation, Mean ([1]; co-treatment 1250 nM dTAGV-1 (log10[M] -5.90309) + 62.5 nM dBET6 (log10[M] -7.20412)): 31.06
DMSO-normalized antiproliferation, Mean ([1]; co-treatment 1250 nM dTAGV-1 (log10[M] -5.90309) + 250 nM dBET6 (log10[M] -6.60206)): 29.68
DMSO-normalized antiproliferation, Mean ([1]; co-treatment 5000 nM dTAGV-1 (log10[M] -5.30103) + 1 nM dBET6 (log10[M] -9.0103)): 80.15
DMSO-normalized antiproliferation, Mean ([1]; co-treatment 5000 nM dTAGV-1 (log10[M] -5.30103) + 4 nM dBET6 (log10[M] -8.40824)): 47.93
DMSO-normalized antiproliferation, Mean ([1]; co-treatment 5000 nM dTAGV-1 (log10[M] -5.30103) + 15.6 nM dBET6 (log10[M] -7.80618)): 27.9
DMSO-normalized antiproliferation, Mean ([1]; co-treatment 5000 nM dTAGV-1 (log10[M] -5.30103) + 62.5 nM dBET6 (log10[M] -7.20412)): 26.15
DMSO-normalized antiproliferation, Mean ([1]; co-treatment 5000 nM dTAGV-1 (log10[M] -5.30103) + 250 nM dBET6 (log10[M] -6.60206)): 25.03
Synergy with VHL-mediated EWS/FLI degradation (dTAGV-1) ([1]; combination index): synergized strongly
DMSO-normalized antiproliferation, Mean ([1]; dBET6 log10[M] -6.60206, with DMSO (no dTAGV-1)): 33.98
DMSO-normalized antiproliferation, Mean ([1]; dBET6 log10[M] -7.20412, with DMSO (no dTAGV-1)): 52.45
DMSO-normalized antiproliferation, Mean ([1]; dBET6 log10[M] -7.80618, with DMSO (no dTAGV-1)): 77.97
DMSO-normalized antiproliferation, Mean ([1]; dBET6 log10[M] -8.40824, with DMSO (no dTAGV-1)): 89.57
DMSO-normalized antiproliferation, Mean ([1]; dBET6 log10[M] -9.0103, with DMSO (no dTAGV-1)): 84.11

Bioluminescent signal 4 h after each of the three administrations ([2]; 35 mg kg^−1 IP): Consistent loss of bioluminescent signal
Structure (SMILES): CC[C@H](C(=O)N1CCCC[C@H]1C(=O)O[C@H](CCc1ccc(OC)c(OC)c1)c1ccccc1OCC(=O)NCCCCCCOc1cccc2c1C(=O)N(C1CCC(=O)NC1=O)C2=O)c1cc(OC)c(OC)c(OC)c1 (stereo partly shown) [dTAG-13]
Total flux for each mouse ([2]; Baseline (day 0, before treatment), MV4;11 luc-FKBP12F36V): 4289000 and 889100 and 3230000 and 316100 and 985400
Total flux for each mouse ([2]; No treatment (day 4), 28 h after third and final treatment): 49160000 and 34070000 and 76150000 and 45320000
Total flux for each mouse ([2]; Treatment #1 (day 1), 4 h after 35 mg kg^−1 IP): 6613000 and 7583000 and 6309000 and 11170000 and 4709000
Total flux for each mouse ([2]; Treatment #2 (day 2), 4 h after 35 mg kg^−1 IP): 5587000 and 3752000 and 2682000 and 8076000 and 3987000
Total flux for each mouse ([2]; Treatment #3 (day 3), 4 h after 35 mg kg^−1 IP): 7807000 and 6324000 and 1630000 and 11780000 and 6875000
